Values of other authors in PMC2965246 (Nucleic Acids Research, 2010).

Test system: GRPR
Details: reported value

bombesin [BBN]
binding affinity to the GRPR: 79 nM
